The structures appear in SMILES notation.

Sequence of BCL-2 recombinant protein (P10415 whole entry): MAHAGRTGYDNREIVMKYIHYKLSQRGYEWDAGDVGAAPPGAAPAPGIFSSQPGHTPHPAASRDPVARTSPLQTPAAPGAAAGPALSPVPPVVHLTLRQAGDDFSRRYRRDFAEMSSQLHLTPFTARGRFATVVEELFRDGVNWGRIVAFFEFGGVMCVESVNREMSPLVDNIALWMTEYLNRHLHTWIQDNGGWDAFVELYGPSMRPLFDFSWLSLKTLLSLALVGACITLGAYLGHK

The test has as its target BCL-2 recombinant protein (Homo sapiens, UniProt P10415). As to the kind of experiment: Cell free Bcl-2:Bak affinity assay (Bcl-2 Bak), HTRF competition of FAM-Bak peptide. It is filed as binding. The following applies: 1 μM compound, 4 nM BCL-2 recombinant protein, 100 nM FAM-Bak, read-out: potency (% inhibition at 1 μM). The protocol: Biological Assays: Cell Free Bcl-2:Bak Affinity Assay (Bcl-2 Bak)
The assay is based on the competition of fluorescently labeled peptide binding to BCL-2 and the binding is monitored by HTRF signals between anti-GST-Tb and FAM-peptide using GST-Tag BCL proteins. Testing compounds were dissolved in DMSO at 10 mM and tested in 10-concentration IC50 mode. The compounds of interest in DMSO were added in 3-fold serial dilution to each well containing 4 nM of BCL-2 recombinant protein, 20 mM K Phosphate, pH 7.5, 50 mM NaCl, 1 mM EDTA, 0.005% Triton X-100, by using acoustic technology (Labcyte echo 550), After 10 minutes incubation at room temperature, 100 nM of FAM-Bak was added and incubated for another 10 minutes before addition of Anti-GST-Tb. The plate was then sealed and further incubated at room temperature for 60 minutes in the dark before reading. Percentage of inhibition was calculated by % inhibition=100×(FDMSO−F)/(FDMSO−FPC), in which FDMSO is DMSO control and FPC is a positive control. IC50 values were determined from dose-response curve by fitting the percent inhibition against compound concentration using GraphPad Prism software.
In general terms: In TR-FRET formats the signal depends on donor and acceptor labels being close together.
In the case of `CC1(C)CCC(CN2CCN(c3ccc(S(=O)(=O)NC(=O)c4ccc(F)c(Cl)n4)cc3)CC2)=C(c2ccc(Cl)cc2)C1` [Example 1, 6-Chloro-N-[4-[4-[[2-(4-chlorophenyl)-4,4-dimethylcyclohexen-1-yl]methyl]piperazin-1-yl]phenyl]sulfonyl-5-fluoropyridine-2-carboxamide], the inhibition (in general, the change of the read-out against control, counted positive when it falls) at 1 µM lay in the range of 50 to 90%.

Take `CC1(C)CCC(CN2CCN(c3ccc(S(=O)(=O)NC(=O)c4ccc([N+](=O)[O-])c(Cl)n4)cc3)CC2)=C(c2ccc(Cl)cc2)C1` [Example 2, 6-chloro-N-[4-[4-[[2-(4-chlorophenyl)-4,4-dimethylcyclohexen-1-yl]methyl]piperazin-1-yl]phenyl]sulfonyl-5-nitropyridine-2-carboxamide]: the inhibition at 1 µM lay in the range of 50 to 90%.

With `CC1(C)CCC(CN2CCN(c3ccc(S(=O)(=O)NC(=O)c4ccc5sccc5c4)cc3)CC2)=C(c2ccc(Cl)cc2)C1` [Example 3, N-[4-[4-[[2-(4-chlorophenyl)-4,4-dimethylcyclohexen-1-yl]methyl]piperazin-1-yl]phenyl]sulfonylbenzo[b]thiophene-5-carboxamide], the inhibition at 1 µM lay within 50 to 90%.

For the compound `Cc1c(C(=O)NS(=O)(=O)c2ccc(N3CCN(CC4=C(c5ccc(Cl)cc5)CC(C)(C)CC4)CC3)cc2)nnn1Cc1ccccc1` [Example 4, 1-benzyl-N-[4-[4-[[2-(4-chlorophenyl)-4,4-dimethylcyclohexen-1-yl]methyl]piperazin-1-yl]phenyl]sulfonyl-5-methyl-1H-1,2,3-triazole-4-carboxamide], the inhibition at 1 µM fell in the range of 50 to 90%.

On to `CC1(C)CCC(CN2CCN(c3ccc(S(=O)(=O)NC(=O)c4ccc5ncccc5c4)cc3)CC2)=C(c2ccc(Cl)cc2)C1` [Example 5, N-([4-[4-[[2-(4-chlorophenyl)-4,4-dimethylcyclohexen-1-yl]methyl]piperazin-1-yl]phenyl]sulfonyl)quinoline-6-carboxamide], for which the inhibition at 1 µM was 50 to 90%.

On to `CC1(C)CCC(CN2CCN(c3ccc(S(=O)(=O)NC(=O)c4cnccn4)cc3)CC2)=C(c2ccc(Cl)cc2)C1` [Example 6, N-([4-[4-[[2-(4-chlorophenyl)-4,4-dimethylcyclohexen-1-yl]methyl]piperazin-1-yl]phenyl]sulfonyl)pyrazine-2-carboxamide], for which the inhibition at 1 µM lay in the range of 50 to 90%.

Regarding `CC1(C)CCC(CN2CCN(c3ccc(S(=O)(=O)NC(=O)C45CC(C4)C5)cc3)CC2)=C(c2ccc(Cl)cc2)C1` [Example 7, N-([4-[4-[[2-(4-chlorophenyl)-4,4-dimethylcyclohexen-1-yl]methyl]piperazin-1-yl]phenyl]sulfonyl)bicyclo[1.1.1]pentane-1-carboxamide], the inhibition at 1 µM was 50 to 90%.

For `Cc1ncc(C(=O)NS(=O)(=O)c2ccc(N3CCN(CC4=C(c5ccc(Cl)cc5)CC(C)(C)CC4)CC3)cc2)cn1` [Example 8, N-([4-[4-[[2-(4-chlorophenyl)-4,4-dimethylcyclohexen-1-yl]methyl]piperazin-1-yl]phenyl]sulfonyl)-2-methylpyrimidine-5-carboxamide], the inhibition at 1 µM was 50 to 90%.

For `CC1(C)CCC(CN2CCN(c3ccc(S(=O)(=O)NC(=O)c4cnc5ccccc5c4)cc3)CC2)=C(c2ccc(Cl)cc2)C1` [Example 9, N-((4-(4-((4′-chloro-5,5-dimethyl-3,4,5,6-tetrahydro-[1,1′-biphenyl]-2-yl)methyl)piperazin-1-yl)phenyl)sulfonyl)quinoline-3-carboxamide], the inhibition at 1 µM was 50 to 90%.

As to `CN1C(=O)CCc2cc(C(=O)NS(=O)(=O)c3ccc(N4CCN(CC5=C(c6ccc(Cl)cc6)CC(C)(C)CC5)CC4)cc3)ccc21` [Example 10, N-([4-[4-[[2-(4-chlorophenyl)-4,4-dimethylcyclohexen-1-yl]methyl]piperazin-1-yl]phenyl]sulfonyl)-1-methyl-2-oxo-1,2,3,4-tetrahydroquinoline-6-carboxamide], the inhibition at 1 µM fell in the range of 50 to 90%.

Consider `COc1ccccc1C(=O)NS(=O)(=O)c1ccc(N2CCN(CC3=C(c4ccc(Cl)cc4)CC(C)(C)CC3)CC2)cc1` [Example 11, N-([4-[4-[[2-(4-chlorophenyl)-4,4-dimethylcyclohexen-1-yl]methyl]piperazin-yl]phenyl]sulfonyl)-2-methoxybenzamide], for which the inhibition at 1 µM lay in the range of 50 to 90%.

For `CC1(C)CCC(CN2CCN(c3ccc(S(=O)(=O)NC(=O)c4cc(C5CC5)on4)cc3)CC2)=C(c2ccc(Cl)cc2)C1` [Example 12, N-([4-[4-[[2-(4-chlorophenyl)-4,4-dimethylcyclohexen-1-yl]methyl]piperazin-1-yl]phenyl]sulfonyl)-5-cyclopropylisoxazole-3-carboxamide], the inhibition at 1 µM was under 50%.

Turning to `CC1(C)CCC(CN2CCN(c3ccc(S(=O)(=O)NC(=O)c4ccc(Br)cn4)cc3)CC2)=C(c2ccc(Cl)cc2)C1` [Example 13, 5-bromo-N-([4-[4-[[2-(4-chlorophenyl)-4,4-dimethylcyclohexen-1-yl]methyl]piperazin-1-yl]phenyl]sulfonyl)pyridine-2-carboxamide], the inhibition at 1 µM was 50 to 90%.

Take `Cc1cc(C(=O)NS(=O)(=O)c2ccc(N3CCN(CC4=C(c5ccc(Cl)cc5)CC(C)(C)CC4)CC3)cc2)[nH]n1` [Example 14, N-([4-[4-[[2-(4-chlorophenyl)-4,4-dimethylcyclohexen-1-yl]methyl]piperazin-1-yl]phenyl]sulfonyl)-3-methyl-1H-pyrazole-5-carboxamide]: the inhibition at 1 µM is 50 to 90%.

Turning to `CC1(C)CCC(CN2CCN(c3ccc(S(=O)(=O)NC(=O)c4cccc(Cl)c4)cc3)CC2)=C(c2ccc(Cl)cc2)C1` [Example 15, 3-chloro-N-([4-[4-[[2-(4-chlorophenyl)-4,4-dimethylcyclohexen-1-yl]methyl]piperazin-1-yl]phenyl]sulfonyl)benzamide], the inhibition at 1 µM is 50 to 90%.

Regarding `Cc1nc(C(=O)NS(=O)(=O)c2ccc(N3CCN(CC4=C(c5ccc(Cl)cc5)CC(C)(C)CC4)CC3)cc2)ccc1F` [Example 16, N-([4-[4-[[2-(4-chlorophenyl)-4,4-dimethylcyclohexen-1-yl]methyl]piperazin-1-yl]phenyl]sulfonyl)-5-fluoro-6-methyl pyridine-2-carboxamide], the inhibition at 1 µM was 50 to 90%.

For the compound `Cc1onc(C(=O)NS(=O)(=O)c2ccc(N3CCN(CC4=C(c5ccc(Cl)cc5)CC(C)(C)CC4)CC3)cc2)c1C` [Example 17, N-([4-[4-[[2-(4-chlorophenyl)-4,4-dimethylcyclohexen-1-yl]methyl]piperazin-1-yl]phenyl]sulfonyl)-4,5-dimethylisoxazole-3-carboxamide], the inhibition at 1 µM is 50 to 90%.

In the case of `COCc1cccc(C(=O)NS(=O)(=O)c2ccc(N3CCN(CC4=C(c5ccc(Cl)cc5)CC(C)(C)CC4)CC3)cc2)c1` [Example 18, N-([4-[4-[[2-(4-chlorophenyl)-4,4-dimethylcyclohexen-1-yl]methyl]piperazin-1-yl]phenyl]sulfonyl)-3-(methoxymethyl)benzamide], the inhibition at 1 µM lay in the range of 50 to 90%.

Take `COCc1ccc(C(=O)NS(=O)(=O)c2ccc(N3CCN(CC4=C(c5ccc(Cl)cc5)CC(C)(C)CC4)CC3)cc2)cc1` [Example 19, N-([4-[4-[[2-(4-chlorophenyl)-4,4-dimethylcyclohexen-1-yl]methyl]piperazin-1-yl]phenyl]sulfonyl)-4-(methoxymethyl)benzamide]: the inhibition at 1 µM is 50 to 90%.

For the compound `CC1(C)CCC(CN2CCN(c3ccc(S(=O)(=O)NC(=O)c4ccc(Cl)c(Cl)n4)cc3)CC2)=C(c2ccc(Cl)cc2)C1` [Example 20, 5,6-dichloro-N-([4-[4-[[2-(4-chlorophenyl)-4,4-dimethylcyclohexen-1-yl]methyl]piperazin-1-yl]phenyl]sulfonyl)pyridine-2-carboxamide], the inhibition at 1 µM lay in the range of 50 to 90%.

`CC1(C)CCC(CN2CCN(c3ccc(S(=O)(=O)NC(=O)c4cccc(C(F)(F)F)n4)cc3)CC2)=C(c2ccc(Cl)cc2)C1` [Example 21, N-([4-[4-[[2-(4-chlorophenyl)-4,4-dimethylcyclohexen-1-yl]methyl]piperazin-1-yl]phenyl]sulfonyl)-6-(trifluoromethyl)pyridine-2-carboxamide]: the inhibition at 1 µM lay within 50 to 90%.

Regarding `CC1(C)CCC(CN2CCN(c3ccc(S(=O)(=O)NC(=O)c4ccncc4C(F)(F)F)cc3)CC2)=C(c2ccc(Cl)cc2)C1` [Example 22, N-([4-[4-[[2-(4-chlorophenyl)-4,4-dimethylcyclohexen-1-yl]methyl]piperazin-1-yl]phenyl]sulfonyl)-3-(trifluoromethyl)pyridine-4-carboxamide], the inhibition at 1 µM was 50 to 90%.

As to `CC1(C)CCC(CN2CCN(c3ccc(S(=O)(=O)NC(=O)c4cncc([N+](=O)[O-])c4)cc3)CC2)=C(c2ccc(Cl)cc2)C1` [Example 23, N-([4-[4-[[2-(4-chlorophenyl)-4,4-dimethylcyclohexen-1-yl]methyl]piperazin-1-yl]phenyl]sulfonyl)-5-nitropyridine-3-carboxamide], the inhibition at 1 µM was in the range of 50 to 90%.

On to `CC1(C)CCC(CN2CCN(c3ccc(S(=O)(=O)NC(=O)c4ccccn4)cc3)CC2)=C(c2ccc(Cl)cc2)C1` [Example 24, N-([4-[4-[[2-(4-chlorophenyl)-4,4-dimethylcyclohexen-1-yl]methyl]piperazin-1-yl]phenyl]sulfonyl)pyridine-2-carboxamide], for which the inhibition at 1 µM was 50 to 90%.

For the origin of these results see patent publication US11622970B2, “BCL-2 inhibitors and their use as pharmaceuticals” (PRELUDE THERAPEUTICS INCORPORATED, priority 2020, dated 2023).
